pIC50: −log10 of the molar value.
Assays:
[1] = The compound was tested to antagonize the CCK-8 induced amylase secretion from pancreatic acini; format: functional
[2] = target: T1, Cholecystokinin receptor type A (Rattus norvegicus, UniProt P30551); assay: Inhibition of [3H]propionyl-CCK-8 specific binding to rat pancreatic Cholecystokinin type A receptor
T1 sequence (P30551 whole entry): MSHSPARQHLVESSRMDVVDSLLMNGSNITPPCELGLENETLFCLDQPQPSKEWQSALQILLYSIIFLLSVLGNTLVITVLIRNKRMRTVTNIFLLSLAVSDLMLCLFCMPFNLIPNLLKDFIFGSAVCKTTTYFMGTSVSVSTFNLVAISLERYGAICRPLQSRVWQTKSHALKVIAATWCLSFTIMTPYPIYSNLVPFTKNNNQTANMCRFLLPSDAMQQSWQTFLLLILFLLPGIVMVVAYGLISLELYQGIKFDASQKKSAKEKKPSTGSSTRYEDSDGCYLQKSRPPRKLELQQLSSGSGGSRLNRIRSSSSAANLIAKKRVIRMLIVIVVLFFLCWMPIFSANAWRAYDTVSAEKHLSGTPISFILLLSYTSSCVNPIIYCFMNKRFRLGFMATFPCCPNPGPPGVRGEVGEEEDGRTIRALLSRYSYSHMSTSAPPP

[3] = target: T2, Gastrin/cholecystokinin type B receptor (Rattus norvegicus, UniProt P30553); assay: Inhibition of [3H]propionyl-CCK-8 specific binding to rat cerebral cortex membranes Cholecystokinin type B receptor; format: cell membranes, Membrane
T2 sequence (P30553 whole entry): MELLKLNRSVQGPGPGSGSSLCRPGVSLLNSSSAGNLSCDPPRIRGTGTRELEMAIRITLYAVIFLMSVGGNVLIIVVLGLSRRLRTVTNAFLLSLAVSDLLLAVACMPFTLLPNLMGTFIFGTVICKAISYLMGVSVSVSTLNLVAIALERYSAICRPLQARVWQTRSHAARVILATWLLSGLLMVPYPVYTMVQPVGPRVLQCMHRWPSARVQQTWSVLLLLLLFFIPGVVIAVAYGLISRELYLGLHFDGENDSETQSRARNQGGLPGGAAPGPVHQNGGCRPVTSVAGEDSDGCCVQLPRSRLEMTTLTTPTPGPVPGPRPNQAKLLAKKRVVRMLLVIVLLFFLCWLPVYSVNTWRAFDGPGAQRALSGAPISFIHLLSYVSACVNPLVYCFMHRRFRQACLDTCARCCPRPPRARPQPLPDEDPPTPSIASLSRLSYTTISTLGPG

pIC50 [1]	pIC50 [2]	pIC50 [3]	SMILES
6.71	8.09	5.24	Cc1ccccc1NC(=O)NCCCC[C@@H](CC(=O)O)NC(=O)[C@H]1Cc2c([nH]c3ccccc23)[C@@H]2C[C@@H](NC(=O)OCc3ccccc3)C(=O)N12
–	6.49	< 5.00	Cc1ccccc1NC(=O)NCCCC[C@@H](CC(=O)O)NC(=O)[C@@H]1Cc2c([nH]c3ccccc23)[C@H]2C[C@H](NC(=O)OCc3ccccc3)C(=O)N21
–	–	< 5.00	O=C(N[C@H]1C[C@@H]2c3[nH]c4ccccc4c3C[C@@H](C(=O)N[C@@H](Cc3ccccc3)C(=O)O)N2C1=O)OCc1ccccc1
–	–	8.17	Cc1ccccc1NC(=O)NCCCC[C@@H](CC(=O)O)NC(=O)[C@@](C)(Cc1c[nH]c2ccccc12)NC(=O)OC1C2CC3CC(C2)CC1C3 (some centres not stated) [PD-170292]

Reference: ChEMBL document CHEMBL1136033, “Effects of the incorporation of IBTM beta-turn mimetics into the dipeptoid CCK(1) receptor agonist PD 170292” (Bioorg Med Chem Lett, 2002)
